What was measured:
[1] = target: T1, EGFR (Homo sapiens, UniProt P00533); test: Biochemical EGFR Assay; set-up: concentration or dose not given beside the values
T1 construct: endogenous in cells; host or cells: A431 cells (lysate, captured with SUMO1 anti-EGFR antibody)
Outline: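 EGFR from A431 lysate was captured on anti-EGFR-coated wells and preincubated 30 min with compound (diluted 1:10 in TBS) at room temperature. After ATP/MnCl2 phosphorylation for 5 min, the reaction was stopped with EDTA. Phosphotyrosine was detected by ELISA (anti-phosphotyrosine, peroxidase conjugate, ABTS) at 410 nm.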

[2] = tested on: PDGF-R; test: PDGF-R Assay (cellular ELISA, U1242 cells); type: cell-based; set-up: concentration or dose not given beside the values
Outline: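 U1242 cells seeded in 0.5% serum, serum-starved, then exposed to compound for 2 hr at 37°C before 5–10 min ligand stimulation and lysis in HNTG. Lysate captured on receptor-antibody-coated plates; phosphotyrosine detected with polyclonal anti-pTyr, goat anti-rabbit IgG and ABTS/H2O2, A410 (ref 630 nm), versus untreated cells.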

T1 sequence (P00533 25-1210): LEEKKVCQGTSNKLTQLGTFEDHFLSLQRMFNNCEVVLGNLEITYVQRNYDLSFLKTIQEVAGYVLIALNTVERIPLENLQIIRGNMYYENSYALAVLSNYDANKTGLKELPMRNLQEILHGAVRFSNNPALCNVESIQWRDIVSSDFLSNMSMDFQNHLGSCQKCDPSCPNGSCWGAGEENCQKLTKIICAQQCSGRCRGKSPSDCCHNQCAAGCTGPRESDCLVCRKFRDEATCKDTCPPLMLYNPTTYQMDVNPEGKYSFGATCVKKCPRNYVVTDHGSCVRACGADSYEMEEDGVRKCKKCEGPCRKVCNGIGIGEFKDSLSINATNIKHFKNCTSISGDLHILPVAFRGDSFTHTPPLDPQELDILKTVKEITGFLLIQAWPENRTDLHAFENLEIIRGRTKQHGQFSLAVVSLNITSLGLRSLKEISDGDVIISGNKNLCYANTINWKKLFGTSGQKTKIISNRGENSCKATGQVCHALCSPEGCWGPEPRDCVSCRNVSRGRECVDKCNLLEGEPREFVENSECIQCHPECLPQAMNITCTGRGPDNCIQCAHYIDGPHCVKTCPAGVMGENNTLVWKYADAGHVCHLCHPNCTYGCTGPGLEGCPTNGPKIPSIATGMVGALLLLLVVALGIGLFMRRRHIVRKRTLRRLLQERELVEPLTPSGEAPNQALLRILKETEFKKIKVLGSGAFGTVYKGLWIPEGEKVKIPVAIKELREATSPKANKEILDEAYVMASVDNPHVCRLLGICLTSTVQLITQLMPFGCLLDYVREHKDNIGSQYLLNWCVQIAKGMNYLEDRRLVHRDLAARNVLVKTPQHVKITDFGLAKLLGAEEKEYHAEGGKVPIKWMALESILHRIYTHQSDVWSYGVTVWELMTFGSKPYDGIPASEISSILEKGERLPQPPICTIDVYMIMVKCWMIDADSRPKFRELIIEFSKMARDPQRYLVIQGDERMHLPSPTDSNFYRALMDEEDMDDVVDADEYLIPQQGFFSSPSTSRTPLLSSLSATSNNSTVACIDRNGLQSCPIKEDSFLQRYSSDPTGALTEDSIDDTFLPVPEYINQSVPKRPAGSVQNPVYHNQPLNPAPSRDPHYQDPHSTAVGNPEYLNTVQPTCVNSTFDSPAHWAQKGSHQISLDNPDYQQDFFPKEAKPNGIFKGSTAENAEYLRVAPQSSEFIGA

| SMILES | Biochem EGFR % Inhibition (P.167) [1] [%] | PDGF Kinase % Inhibition (P.119) [2] [%] |
| --- | --- | --- |
| Cc1c(O)ccc(C=C2C(=O)Nc3c(Br)cc(Br)c(C)c32)c1O [10718/H09] | 34.2 | – |
| Cc1c(Br)cc(Br)c2c1C(=Cc1ccco1)C(=O)N2 [10718/H10] | −5.7 | – |
| Cc1c(Br)cc(Br)c2c1C(=Cc1ccc([N+](=O)[O-])o1)C(=O)N2 [10718/H11] | 4.4 | – |
| CCOc1ccc(C=C2C(=O)Nc3c(Br)cc(Br)c(C)c32)cc1OC [10719/H02] | 43.9 | – |
| Cc1c(Br)cc(Br)c2c1C(=Cc1ccc(O)c(O)c1)C(=O)N2 [10719/H03] | 25.1 | – |
| COc1ccc(C=C2C(=O)Nc3c(Br)cc(Br)c(C)c32)c(OC)c1 [10719/H04] | −0.5 | – |
| CCc1c(C)[nH]c(C=C2C(=O)Nc3c(Br)cc(Br)c(C)c32)c1C [10719/H05] | 7.9 | – |
| COc1cc(OC)c(C=C2C(=O)Nc3c(Br)cc(Br)c(C)c32)c(OC)c1 [10719/H06] | −28.0 | – |
| CCN(CC)c1ccc(C=C2C(=O)Nc3c(Br)cc(Br)c(C)c32)c(O)c1 [10734/H05] | 4.7 | −14.4 |
| Cc1c(Br)cc(Br)c2c1C(=Cc1ccc([N+](=O)[O-])cc1)C(=O)N2 [10734/H06] | −32.2 | −26.3 |
| Cc1c(Br)cc(Br)c2c1C(=Cc1cc(Br)cc(Br)c1O)C(=O)N2 [10734/H07] | 6.6 | −6.4 |
| Cc1c(Br)cc(Br)c2c1C(=Cc1cccc(F)c1O)C(=O)N2 [10734/H08] | 2.9 | 2.9 |
| Cc1c(Br)cc(Br)c2c1C(=Cc1ccc(O)c(Br)c1)C(=O)N2 [10734/H09] | −4.2 | −19.2 |
| Cc1c(Br)cc(Br)c2c1C(=Cc1ccc(C(C)(C)C)cc1)C(=O)N2 [10734/H10] | −12.6 | −17.9 |
| Cc1c(Br)cc(Br)c2c1C(=Cc1ccc(Br)s1)C(=O)N2 [10734/H11] | −8.5 | −17.9 |
| Cc1ccccc1C=C1C(=O)Nc2c(Br)cc(Br)cc21 [10735/A02] | 14.3 | 14.3 |
| O=C1Nc2c(Br)cc(Br)cc2C1=Cc1ccc(F)c(F)c1 [10735/A03] | 28.8 | 21.9 |
| O=C1Nc2c(Br)cc(Br)cc2C1=Cc1cc(F)cc(F)c1 [10735/A04] | 5.0 | 18.8 |
| O=C1Nc2c(Br)cc(Br)cc2C1=Cc1cccc(C(F)(F)F)c1 [10735/A05] | 41.5 | 0.9 |
| O=C1Nc2c(Br)cc(Br)cc2C1=Cc1cc(C(F)(F)F)cc(C(F)(F)F)c1 [10735/A06] | 24.9 | 4.7 |
| N#Cc1ccccc1C=C1C(=O)Nc2c(Br)cc(Br)cc21 [10735/A07] | 18.7 | 0.5 |
| O=C1Nc2c(Br)cc(Br)cc2C1=Cc1c(F)cccc1F [10735/A08] | 10.9 | 5.3 |
| O=C1Nc2c(Br)cc(Br)cc2C1=Cc1cccc2ccccc12 [10735/A09] | 13.0 | 1.9 |
| O=C1Nc2c(Br)cc(Br)cc2C1=Cc1ccc(Cl)cc1Cl [10735/A10] | 10.2 | −0.2 |
| O=C1Nc2c(Br)cc(Br)cc2C1=Cc1ccc(-c2ccccc2)cc1 [10735/A11] | 3.3 | 5.7 |
| Cc1ccccc1C=C1C(=O)Nc2ccc(I)cc21 [10735/B02] | 39.1 | 22.6 |
| O=C1Nc2ccc(I)cc2C1=Cc1ccc(F)c(F)c1 [10735/B03] | 42.9 | 16.4 |
| O=C1Nc2ccc(I)cc2C1=Cc1cc(F)cc(F)c1 [10735/B04] | 49.2 | 2.9 |
| O=C1Nc2ccc(I)cc2C1=Cc1cccc(C(F)(F)F)c1 [10735/B05] | 61.6 | 17.4 |
| O=C1Nc2ccc(I)cc2C1=Cc1cc(C(F)(F)F)cc(C(F)(F)F)c1 [10735/B06] | 49.4 | 14.0 |
